What all share (conditions): Compound concentration 1000.0 nM
In assay [1] the target is Tyrosine-protein kinase ABL1 (Homo sapiens) (UniProt P00519).
The target in assay [2] is Atypical kinase COQ8A, mitochondrial (Homo sapiens) (UniProt Q8NI60).
The target of assay [3] is BMP-2-inducible protein kinase (Homo sapiens) (UniProt Q9NSY1).
The target of assay [4] is T1, Bone morphogenetic protein receptor type-2 (Homo sapiens) (UniProt Q13873).
T1 sequence (whole entry): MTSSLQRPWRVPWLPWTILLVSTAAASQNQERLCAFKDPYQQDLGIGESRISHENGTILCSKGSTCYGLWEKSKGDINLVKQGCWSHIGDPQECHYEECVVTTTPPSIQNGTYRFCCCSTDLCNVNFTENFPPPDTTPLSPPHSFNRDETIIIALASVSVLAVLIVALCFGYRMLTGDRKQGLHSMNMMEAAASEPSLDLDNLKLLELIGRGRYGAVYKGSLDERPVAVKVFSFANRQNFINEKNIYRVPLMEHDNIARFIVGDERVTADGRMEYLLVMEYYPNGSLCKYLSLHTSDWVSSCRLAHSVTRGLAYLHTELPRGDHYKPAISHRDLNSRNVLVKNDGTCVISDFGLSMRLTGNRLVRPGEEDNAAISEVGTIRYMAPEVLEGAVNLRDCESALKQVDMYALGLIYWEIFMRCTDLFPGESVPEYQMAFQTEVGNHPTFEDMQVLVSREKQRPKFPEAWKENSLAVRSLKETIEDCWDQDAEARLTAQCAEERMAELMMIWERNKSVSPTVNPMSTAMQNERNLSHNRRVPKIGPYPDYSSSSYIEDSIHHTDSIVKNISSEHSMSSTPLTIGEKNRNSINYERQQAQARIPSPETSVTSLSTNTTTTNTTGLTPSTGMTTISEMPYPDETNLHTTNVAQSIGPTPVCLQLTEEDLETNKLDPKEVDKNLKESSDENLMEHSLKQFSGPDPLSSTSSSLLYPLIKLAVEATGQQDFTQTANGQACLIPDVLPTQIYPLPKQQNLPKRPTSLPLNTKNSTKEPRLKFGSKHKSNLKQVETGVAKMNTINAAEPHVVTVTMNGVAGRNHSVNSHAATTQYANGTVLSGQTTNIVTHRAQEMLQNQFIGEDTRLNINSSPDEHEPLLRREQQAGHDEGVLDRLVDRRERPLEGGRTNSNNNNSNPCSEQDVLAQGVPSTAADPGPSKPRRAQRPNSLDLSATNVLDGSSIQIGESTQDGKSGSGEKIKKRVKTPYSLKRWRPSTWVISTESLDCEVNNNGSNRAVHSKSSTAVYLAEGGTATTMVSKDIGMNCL

The target in assay [5] is Cyclin-dependent kinase 13 (Homo sapiens) (UniProt Q14004).
Assay [6] deals with Ephrin type-B receptor 6 (Homo sapiens) (UniProt O15197).
The target of assay [7] is Tyrosine-protein kinase HCK (Homo sapiens) (UniProt P08631).
Assay [8] has as its target Interleukin-1 receptor-associated kinase 3 (Homo sapiens) (UniProt Q9Y616).
Assay [9] has as its target Tyrosine-protein kinase JAK1 (Homo sapiens) (UniProt P23458).
Assay [10] addresses Mitogen-activated protein kinase 10 (Homo sapiens) (UniProt P53779).
Assay [11] deals with Mast/stem cell growth factor receptor Kit (Homo sapiens), P10721 [L576P].
Assay [12] deals with MAP kinase-activated protein kinase 2 (Homo sapiens) (UniProt P49137).
In assay [13] the target is MAP/microtubule affinity-regulating kinase 3 (Homo sapiens) (UniProt P27448).
Assay [14] has as its target Serine/threonine-protein kinase 24 (Homo sapiens, UniProt Q9Y6E0).
For assay [15], the target named is Serine/threonine-protein kinase N2 (Homo sapiens) (UniProt Q16513).
Assay [16] has as its target Serine/threonine-protein kinase RIO1 (Homo sapiens) (UniProt Q9BRS2).
For assay [17], the target named is T2, Serine/threonine-protein kinase tousled-like 1 (Homo sapiens) (UniProt Q9UKI8).
T2 sequence (whole entry): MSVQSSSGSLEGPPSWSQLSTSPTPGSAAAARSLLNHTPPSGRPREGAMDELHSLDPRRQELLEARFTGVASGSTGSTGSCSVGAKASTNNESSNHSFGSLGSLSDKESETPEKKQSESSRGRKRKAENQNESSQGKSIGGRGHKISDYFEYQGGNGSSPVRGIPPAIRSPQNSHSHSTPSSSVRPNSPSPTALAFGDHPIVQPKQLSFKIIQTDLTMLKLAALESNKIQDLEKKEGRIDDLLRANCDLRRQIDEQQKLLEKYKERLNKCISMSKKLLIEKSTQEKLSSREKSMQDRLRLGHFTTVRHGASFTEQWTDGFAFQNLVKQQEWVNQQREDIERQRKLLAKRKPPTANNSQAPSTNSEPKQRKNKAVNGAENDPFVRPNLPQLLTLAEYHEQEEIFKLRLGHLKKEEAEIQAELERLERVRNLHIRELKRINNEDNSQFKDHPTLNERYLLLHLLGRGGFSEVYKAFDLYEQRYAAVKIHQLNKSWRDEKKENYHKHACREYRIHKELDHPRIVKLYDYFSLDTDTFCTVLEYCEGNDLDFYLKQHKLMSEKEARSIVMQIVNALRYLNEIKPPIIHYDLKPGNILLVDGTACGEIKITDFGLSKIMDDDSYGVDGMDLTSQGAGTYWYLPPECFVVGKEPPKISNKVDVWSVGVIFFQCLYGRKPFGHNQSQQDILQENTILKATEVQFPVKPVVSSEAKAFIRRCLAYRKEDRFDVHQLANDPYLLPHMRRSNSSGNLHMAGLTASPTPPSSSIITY

Assay [18] concerns the target Mitogen-activated protein kinase kinase kinase 19 (Homo sapiens) (UniProt Q56UN5).

Ephrin type-B receptor 6 (Homo sapiens), sequence (O15197 whole entry): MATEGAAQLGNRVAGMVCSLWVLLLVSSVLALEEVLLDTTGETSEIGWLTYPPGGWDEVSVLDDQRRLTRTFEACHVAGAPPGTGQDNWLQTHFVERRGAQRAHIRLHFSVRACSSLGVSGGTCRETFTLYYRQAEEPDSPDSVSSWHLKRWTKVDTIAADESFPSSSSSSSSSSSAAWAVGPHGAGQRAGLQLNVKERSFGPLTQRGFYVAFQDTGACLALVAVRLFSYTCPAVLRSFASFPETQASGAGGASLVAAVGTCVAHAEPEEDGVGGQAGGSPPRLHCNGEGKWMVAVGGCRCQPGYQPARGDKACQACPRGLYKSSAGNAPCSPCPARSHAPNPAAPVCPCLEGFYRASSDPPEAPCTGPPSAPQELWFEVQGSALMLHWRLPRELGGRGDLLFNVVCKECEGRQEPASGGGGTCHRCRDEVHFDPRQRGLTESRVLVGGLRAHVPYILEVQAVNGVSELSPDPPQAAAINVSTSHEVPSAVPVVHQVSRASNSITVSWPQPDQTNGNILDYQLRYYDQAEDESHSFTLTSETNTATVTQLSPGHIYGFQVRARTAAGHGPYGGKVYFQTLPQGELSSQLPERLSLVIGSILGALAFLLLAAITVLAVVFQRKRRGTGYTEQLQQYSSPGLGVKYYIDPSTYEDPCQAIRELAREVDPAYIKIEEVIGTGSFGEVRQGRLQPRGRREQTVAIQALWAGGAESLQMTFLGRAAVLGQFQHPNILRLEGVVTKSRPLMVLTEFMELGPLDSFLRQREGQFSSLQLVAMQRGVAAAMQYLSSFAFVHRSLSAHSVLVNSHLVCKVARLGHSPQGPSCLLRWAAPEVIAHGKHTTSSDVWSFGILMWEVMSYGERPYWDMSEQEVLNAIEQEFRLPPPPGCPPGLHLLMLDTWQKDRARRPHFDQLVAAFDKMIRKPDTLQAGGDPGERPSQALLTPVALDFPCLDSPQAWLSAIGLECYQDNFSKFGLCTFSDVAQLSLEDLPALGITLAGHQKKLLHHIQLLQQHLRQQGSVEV
Tyrosine-protein kinase JAK1 (Homo sapiens), sequence (P23458 whole entry): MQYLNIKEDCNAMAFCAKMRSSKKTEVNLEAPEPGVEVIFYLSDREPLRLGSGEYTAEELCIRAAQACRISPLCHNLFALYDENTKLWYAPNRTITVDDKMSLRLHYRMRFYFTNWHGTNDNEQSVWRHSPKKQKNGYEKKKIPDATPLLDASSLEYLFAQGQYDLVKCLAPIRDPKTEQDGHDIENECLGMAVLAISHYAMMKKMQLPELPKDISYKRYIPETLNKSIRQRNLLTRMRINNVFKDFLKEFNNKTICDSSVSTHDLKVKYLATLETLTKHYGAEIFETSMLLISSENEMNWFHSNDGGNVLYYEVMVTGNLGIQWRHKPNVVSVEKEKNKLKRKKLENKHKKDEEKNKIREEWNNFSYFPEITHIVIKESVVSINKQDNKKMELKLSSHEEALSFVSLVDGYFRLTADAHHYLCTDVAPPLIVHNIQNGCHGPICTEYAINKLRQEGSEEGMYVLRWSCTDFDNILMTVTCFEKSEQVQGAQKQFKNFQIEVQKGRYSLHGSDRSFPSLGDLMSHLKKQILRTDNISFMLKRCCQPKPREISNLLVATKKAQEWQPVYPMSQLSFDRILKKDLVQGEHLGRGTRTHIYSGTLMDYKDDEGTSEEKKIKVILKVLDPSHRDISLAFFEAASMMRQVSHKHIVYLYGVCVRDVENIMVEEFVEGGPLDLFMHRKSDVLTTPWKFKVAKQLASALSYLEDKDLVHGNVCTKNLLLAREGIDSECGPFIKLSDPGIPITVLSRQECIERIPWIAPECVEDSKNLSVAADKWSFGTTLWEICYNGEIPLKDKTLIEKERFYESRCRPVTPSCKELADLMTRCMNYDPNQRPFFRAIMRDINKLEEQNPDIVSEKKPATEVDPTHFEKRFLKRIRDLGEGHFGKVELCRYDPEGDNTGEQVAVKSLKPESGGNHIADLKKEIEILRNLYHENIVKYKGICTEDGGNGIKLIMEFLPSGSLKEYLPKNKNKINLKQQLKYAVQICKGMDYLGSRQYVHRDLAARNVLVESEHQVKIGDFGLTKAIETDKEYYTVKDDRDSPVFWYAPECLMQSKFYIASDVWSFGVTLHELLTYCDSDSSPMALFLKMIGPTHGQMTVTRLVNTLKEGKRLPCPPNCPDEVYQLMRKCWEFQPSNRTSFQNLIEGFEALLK
Interleukin-1 receptor-associated kinase 3 (Homo sapiens), sequence (Q9Y616 whole entry): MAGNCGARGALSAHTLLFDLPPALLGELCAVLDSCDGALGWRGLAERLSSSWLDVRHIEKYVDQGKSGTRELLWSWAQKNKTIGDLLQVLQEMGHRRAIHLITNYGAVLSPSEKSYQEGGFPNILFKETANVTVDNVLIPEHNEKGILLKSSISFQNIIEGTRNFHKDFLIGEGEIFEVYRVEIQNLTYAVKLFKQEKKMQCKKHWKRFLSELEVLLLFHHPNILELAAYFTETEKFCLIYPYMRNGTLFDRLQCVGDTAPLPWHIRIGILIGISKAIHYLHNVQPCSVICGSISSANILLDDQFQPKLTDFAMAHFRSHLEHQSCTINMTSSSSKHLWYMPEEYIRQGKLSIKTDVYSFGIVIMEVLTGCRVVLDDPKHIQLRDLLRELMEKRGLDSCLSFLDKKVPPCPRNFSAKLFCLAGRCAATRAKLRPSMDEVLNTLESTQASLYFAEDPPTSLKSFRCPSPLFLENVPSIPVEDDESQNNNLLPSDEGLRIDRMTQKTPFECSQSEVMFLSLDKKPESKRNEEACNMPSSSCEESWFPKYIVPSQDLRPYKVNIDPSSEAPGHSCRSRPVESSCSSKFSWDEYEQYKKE
Tyrosine-protein kinase HCK (Homo sapiens), sequence (P08631 2-526 limits assumed): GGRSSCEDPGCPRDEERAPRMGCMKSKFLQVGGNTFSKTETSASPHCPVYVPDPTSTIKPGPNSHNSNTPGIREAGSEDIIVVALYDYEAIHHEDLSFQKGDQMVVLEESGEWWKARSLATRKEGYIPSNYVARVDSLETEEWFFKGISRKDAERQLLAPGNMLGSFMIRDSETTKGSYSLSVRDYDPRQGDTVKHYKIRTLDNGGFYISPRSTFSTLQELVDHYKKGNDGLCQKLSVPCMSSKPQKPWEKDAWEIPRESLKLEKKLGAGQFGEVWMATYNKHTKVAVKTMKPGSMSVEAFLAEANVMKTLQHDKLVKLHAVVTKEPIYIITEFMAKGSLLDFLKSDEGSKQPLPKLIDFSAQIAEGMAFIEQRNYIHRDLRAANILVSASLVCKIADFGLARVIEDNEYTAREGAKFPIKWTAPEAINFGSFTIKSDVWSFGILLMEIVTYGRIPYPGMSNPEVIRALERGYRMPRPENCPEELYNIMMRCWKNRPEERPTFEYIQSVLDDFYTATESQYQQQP
Mitogen-activated protein kinase 10 (Homo sapiens), sequence (P53779 whole entry): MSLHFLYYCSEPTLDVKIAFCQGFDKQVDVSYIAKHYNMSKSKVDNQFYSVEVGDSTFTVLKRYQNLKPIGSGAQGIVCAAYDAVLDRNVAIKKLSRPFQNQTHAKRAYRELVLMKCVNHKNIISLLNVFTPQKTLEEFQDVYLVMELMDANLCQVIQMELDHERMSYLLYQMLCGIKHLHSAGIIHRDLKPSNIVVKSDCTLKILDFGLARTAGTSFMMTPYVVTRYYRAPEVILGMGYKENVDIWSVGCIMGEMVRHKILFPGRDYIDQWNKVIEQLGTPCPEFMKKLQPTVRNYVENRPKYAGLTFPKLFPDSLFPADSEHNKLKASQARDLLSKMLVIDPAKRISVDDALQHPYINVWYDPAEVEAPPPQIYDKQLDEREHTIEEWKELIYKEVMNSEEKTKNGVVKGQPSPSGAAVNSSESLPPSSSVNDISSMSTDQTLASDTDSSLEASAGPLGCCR
Tyrosine-protein kinase ABL1 (Homo sapiens), sequence (P00519 whole entry): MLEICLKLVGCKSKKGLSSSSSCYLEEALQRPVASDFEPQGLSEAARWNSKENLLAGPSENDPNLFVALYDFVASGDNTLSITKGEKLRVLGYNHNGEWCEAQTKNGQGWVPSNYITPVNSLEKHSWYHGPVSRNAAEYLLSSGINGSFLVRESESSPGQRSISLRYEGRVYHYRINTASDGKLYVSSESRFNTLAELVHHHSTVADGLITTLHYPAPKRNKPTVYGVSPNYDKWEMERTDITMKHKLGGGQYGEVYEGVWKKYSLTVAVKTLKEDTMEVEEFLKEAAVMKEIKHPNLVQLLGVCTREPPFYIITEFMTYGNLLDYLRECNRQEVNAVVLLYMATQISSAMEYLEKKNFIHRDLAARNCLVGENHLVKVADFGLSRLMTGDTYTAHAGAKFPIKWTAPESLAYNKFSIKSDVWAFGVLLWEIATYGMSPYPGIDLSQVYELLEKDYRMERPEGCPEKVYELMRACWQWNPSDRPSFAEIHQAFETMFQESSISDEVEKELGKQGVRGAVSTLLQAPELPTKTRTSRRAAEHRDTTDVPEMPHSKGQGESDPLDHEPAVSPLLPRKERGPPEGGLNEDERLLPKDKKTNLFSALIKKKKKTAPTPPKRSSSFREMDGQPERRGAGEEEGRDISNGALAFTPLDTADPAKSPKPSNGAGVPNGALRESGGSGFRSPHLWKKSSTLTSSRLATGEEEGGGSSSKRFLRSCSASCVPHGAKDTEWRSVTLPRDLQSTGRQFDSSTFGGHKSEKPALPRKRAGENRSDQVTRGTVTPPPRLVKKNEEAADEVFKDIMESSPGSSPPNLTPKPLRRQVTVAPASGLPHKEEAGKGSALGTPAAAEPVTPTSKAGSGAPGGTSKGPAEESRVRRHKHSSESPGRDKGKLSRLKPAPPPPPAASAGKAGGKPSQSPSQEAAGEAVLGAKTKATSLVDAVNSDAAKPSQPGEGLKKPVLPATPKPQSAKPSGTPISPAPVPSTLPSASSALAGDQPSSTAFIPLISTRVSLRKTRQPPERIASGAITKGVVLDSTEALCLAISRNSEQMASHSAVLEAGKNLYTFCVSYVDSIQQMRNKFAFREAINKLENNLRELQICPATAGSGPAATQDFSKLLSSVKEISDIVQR

Turning to `CC1=C(C#N)C(c2ccc3c(c2)c(NC(=O)c2ccccc2C)nn3C)C(C#N)=C(C)N1` [BAY-974], the residual activity in assay [1] is 86%; in [2], 100%; in assay [3], 100%; in assay [4] it was 79%; in [5], 87%; in assay [6], 81%. The residual activity in [7] is 66%; in assay [8] it was 79%; in assay [9], 100%; in assay [10] it was 100%; in [11] it was 100%; in assay [12], 84%. In addition, the residual activity in assay [13] was 92%; in [14] it was 100%; in assay [15] it was 100%; in assay [16], 93%; in [17], 88%; in [18], 82%.

For the molecule `CCc1ccccc1C(=O)Nc1n[nH]c2c(C)c(F)c(C3C(C#N)=C(C)N(C)C(C)=C3C#N)cc12` [BAY-3827], the residual activity in assay [1] is 78%; in assay [2] it was 84%; in assay [3] it was 100%; in assay [4] it was 100%; in [5], 100%; in [6] it was 100%. In addition, the residual activity in assay [7] was 100%; in [8], 98%; in [9] it was 97%; in assay [10], 92%; in assay [11] it was 91%; in assay [12] it was 100%. Also, the residual activity was 30% in assay [13]; 90% in assay [14]; 100% in [15]; 82% in [16]; 100% in [17]; 74% in assay [18].

The values are drawn from ChEMBL document CHEMBL4507319 (2021).
